pIC50: −log10 of the molar value.
What was measured:
PRMT5 [1] = molecular target: T1, PRMT5 (Homo sapiens, UniProt O14744); assay: PRMT5 biochemical IC50 assay with SAM as cofactor; details: PRMT5, SAM as cofactor; read-out: SAM IC50
T1 construct: purchased Viva (custom protein)

PRMT5 [2] = molecular target: T1, PRMT5; assay: PRMT5 biochemical IC50 assay with no cofactor; details: PRMT5, no cofactor; read-out: No Cofactor/ rel IC50
From the text: Table 1 indicates IC50 values (μM) against PRMT5 for exemplary compounds in the presence of SAM as cofactor, with no cofactor, and with MTA as cofactor, respectively (columns 4-6). […] Ki values can be calculated from the IC50 values as described in the Examples section. As detailed in the Examples section, for the assay performed in the presence of SAM, IC50=Ki×1.5 (Ki=IC50/1.5).

PRMT5 [3] = molecular target: T1, PRMT5; assay: PRMT5 biochemical IC50 assay with MTA as cofactor; details: PRMT5, MTA as cofactor; read-out: MTA IC50
[4] = test system: HAP1 MTAP-intact cell line; assay: SDMA in-cell western assay, HAP1 MTAP-intact; type: cell-based; details: Homo sapiens, HAP1, SDMA in-cell western, HAP1 MTAP-intact; read-out: MTAP HAP1 intact IC50
Outline: (§1)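 IC50 values come from SDMA signal quantified by in-cell western in two HAP1 lines, one with native MTAP levels and one lacking MTAP.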

[5] = test system: HAP1 MTAP-deleted cell line; assay: SDMA in-cell western assay, HAP1 MTAP-deleted; type: cell-based; details: for pIC50: Homo sapiens, HAP1, SDMA in-cell western, HAP1 MTAP-deleted, read-out: HAP 1 MTAP deleted IC50; for MTAP intact/deleted ratio: IC50 ratio HAP1 MTAP-intact / HAP1 MTAP-deleted, SDMA in-cell western
Outline: as §1

[6] = test system: HAP1 MTAP-deleted cell line; assay: Viability assay, MTAP-deleted cell line; type: cell-based; details: Homo sapiens, HAP1, viability assay, MTAP-deleted cell line; read-out: HAP1 MTAP deleted viability
From the text: Table 1 additionally indicates IC50 values in a viability assay for the MTAP-deleted cell line (column 10), indicating the effect of treatment with compound on cell survival.

T1 sequence (O14744 whole entry): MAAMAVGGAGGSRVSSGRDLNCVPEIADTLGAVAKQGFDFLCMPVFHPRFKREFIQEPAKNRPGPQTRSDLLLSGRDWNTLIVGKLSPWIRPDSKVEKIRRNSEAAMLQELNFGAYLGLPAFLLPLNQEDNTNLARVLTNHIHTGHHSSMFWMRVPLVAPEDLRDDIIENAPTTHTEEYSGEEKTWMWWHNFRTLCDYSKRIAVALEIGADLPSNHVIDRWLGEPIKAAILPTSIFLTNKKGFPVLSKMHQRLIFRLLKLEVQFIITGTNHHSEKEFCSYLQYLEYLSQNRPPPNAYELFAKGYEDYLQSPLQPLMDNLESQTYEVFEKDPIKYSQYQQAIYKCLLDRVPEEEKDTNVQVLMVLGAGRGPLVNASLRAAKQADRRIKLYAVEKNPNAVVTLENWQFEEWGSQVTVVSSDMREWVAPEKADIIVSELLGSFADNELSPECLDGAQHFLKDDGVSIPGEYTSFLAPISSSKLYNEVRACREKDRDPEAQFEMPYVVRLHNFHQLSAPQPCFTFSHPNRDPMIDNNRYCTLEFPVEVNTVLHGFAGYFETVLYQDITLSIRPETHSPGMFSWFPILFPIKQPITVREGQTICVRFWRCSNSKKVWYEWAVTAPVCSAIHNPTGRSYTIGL
T1 sequence (Q9BQA1 whole entry partner): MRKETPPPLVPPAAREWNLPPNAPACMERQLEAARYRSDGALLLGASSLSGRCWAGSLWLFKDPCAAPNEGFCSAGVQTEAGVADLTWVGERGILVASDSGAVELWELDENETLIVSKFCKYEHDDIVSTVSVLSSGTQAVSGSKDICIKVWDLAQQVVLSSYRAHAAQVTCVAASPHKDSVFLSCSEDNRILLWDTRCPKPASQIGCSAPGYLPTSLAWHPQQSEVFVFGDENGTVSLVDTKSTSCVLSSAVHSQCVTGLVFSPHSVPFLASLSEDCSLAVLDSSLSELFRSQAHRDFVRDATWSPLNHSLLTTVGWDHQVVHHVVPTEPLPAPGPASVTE

Structure (SMILES) | pIC50 (PRMT5 [1]) | pIC50 (PRMT5 [2]) | pIC50 (PRMT5 [3]) | pIC50 [4] | pIC50 [5] | MTAP intact/deleted ratio [5] | pIC50 [6]
C[C@@H]1CC[C@@H](c2cccnc2)N(C(=O)C(=O)Nc2cncc(C(N)=O)c2)C1 (racemic) [Compound 102, 5-[[2-[5-methyl-2-(3-pyridyl)-1-piperidyl]-2-oxo-acetyl]amino]pyridine-3-carboxamide] | 6.30 to 7.30 | 6.30 to 7.30 | > 7.30 | < 6.00 | 6.00 to 7.00 | A (an IC50 ratio greater than or equal to 10 fold) | < 5.00
Cc1ncc([C@@H]2CC[C@@H](C)CN2C(=O)C(=O)Nc2cnc(N)c(C)c2)cn1 (racemic) [Compound 107, rac-N-(6-amino-5-methylpyridin-3-yl)-2-((2R,5S)-5-methyl-2-(2-methylpyrimidin-5-yl)piperidin-1-yl)-2-oxoacetamide] | 6.30 to 7.30 | < 6.30 | 6.30 to 7.30 | < 6.00 | < 6.00 | C (an IC50 ratio of less than 3 fold) | < 5.00
Cc1cc(NC(=O)C(=O)N2C[C@H](C)CC[C@H]2c2cncnc2)cnc1N (racemic) [Compound 109, rac-N-(6-amino-5-methylpyridin-3-yl)-2-((2R,5S)-5-methyl-2-(pyrimidin-5-yl)piperidin-1-yl)-2-oxoacetamide] | 6.30 to 7.30 | < 6.30 | 6.30 to 7.30 | < 6.00 | < 6.00 | B (an IC50 ratio greater than or equal to 3 fold but lower than 10 fold) | < 5.00
CC(=O)Nc1cccc([C@@H]2CC[C@@H](C)CN2C(=O)C(=O)Nc2cncc(C)c2)c1 (racemic) [Compound 110, 2-[(2S,5R)-2-(3-acetamidophenyl)-5-methyl-1-piperidyl]-N-(5-methyl-3-pyridyl)-2-oxo-acetamide] | 6.30 to 7.30 | 6.30 to 7.30 | 6.30 to 7.30 | < 6.00 | < 6.00 | B (an IC50 ratio greater than or equal to 3 fold but lower than 10 fold) | < 5.00
CC(=O)Nc1ccc([C@@H]2CC[C@@H](C)CN2C(=O)C(=O)Nc2cncc(C)c2)cc1 (racemic) [Compound 111, 2-[(2R,5S)-2-(4-acetamidophenyl)-5-methyl-1-piperidyl]-N-(5-methyl-3-pyridyl)-2-oxo-acetamide] | 6.30 to 7.30 | 6.30 to 7.30 | 6.30 to 7.30 | < 6.00 | 6.00 to 7.00 | A (an IC50 ratio greater than or equal to 10 fold) | < 5.00
Cc1cc(NC(=O)C(=O)N2[C@@H](C)CCC[C@H]2c2ccccc2)cnc1N (racemic) [Compound 112, N-(6-amino-5-methyl-3-pyridyl)-2-[rac-(2R,6R)-2-methyl-6-phenyl-1-piperidyl]-2-oxo-acetamide] | 6.30 to 7.30 | 6.30 to 7.30 | > 7.30 | 6.00 to 7.00 | > 7.00 | B (an IC50 ratio greater than or equal to 3 fold but lower than 10 fold) | 5.00 to 6.00
COc1cc([C@@H]2CC[C@@H](C)CN2C(=O)C(=O)Nc2cncc(C(N)=O)c2)ccc1Cl (racemic) [Compound 114, rac-rac-5-{2-[(2R,5S)-2-(4-chloro-3-methoxyphenyl)-5-methylpiperidin-1-yl]-2-oxoacetamido}pyridine-3-carboxamide] | 6.30 to 7.30 | 6.30 to 7.30 | > 7.30 | < 6.00 | > 7.00 | A (an IC50 ratio greater than or equal to 10 fold) | < 5.00
Cc1cc(C)cc([C@@H]2CC[C@@H](C)CN2C(=O)C(=O)Nc2cncc(C(N)=O)c2)c1 (racemic) [Compound 118, rac-5-{2-[(2R,5S)-2-(3,5-dimethylphenyl)-5-methylpiperidin-1-yl]-2-oxoacetamido}pyridine-3-carboxamide] | 6.30 to 7.30 | < 6.30 | > 7.30 | < 6.00 | 6.00 to 7.00 | A (an IC50 ratio greater than or equal to 10 fold) | < 5.00
NC(=O)c1cncc(NC(=O)C(=O)N2CCCC3(C2)OC[C@@H]2C[C@@H]23)c1 (mixture of isomers) [Compound 124, rac-5-{2-[(R,5S)-3-Oxaspiro[bicyclo[3.1.0]hexane-2,3′-piperidine]-1′-yl]-2-oxoacetamido}pyridine-3-carboxamide] | < 6.30 | < 6.30 | 6.30 to 7.30 | < 6.00 | < 6.00 | C (an IC50 ratio of less than 3 fold) | < 5.00

More lines, main results first:

pIC50 (PRMT5 [1]) | pIC50 (PRMT5 [2]) | pIC50 (PRMT5 [3]) | pIC50 [4] | pIC50 [5] | Structure (SMILES) | MTAP intact/deleted ratio [5] | pIC50 [6]
6.30 to 7.30 | 6.30 to 7.30 | 6.30 to 7.30 | < 6.00 | < 6.00 | C[C@@H]1CC[C@@H](c2cccc(C(N)=O)c2)N(C(=O)C(=O)Nc2cncc(C(N)=O)c2)C1 (racemic) [Compound 125, rac-5-{2-[(2R,5S)-2-(3-Carbamoylphenyl)-5-methylpiperidin-1-yl]-2-oxoacetamido}pyridine-3-carboxamide] | B (an IC50 ratio greater than or equal to 3 fold but lower than 10 fold) | < 5.00
6.30 to 7.30 | 6.30 to 7.30 | > 7.30 | < 6.00 | 6.00 to 7.00 | COc1ccc([C@@H]2CC[C@@H](C)CN2C(=O)C(=O)Nc2cncc(C(N)=O)c2)cn1 (racemic) [Compound 128, rac-5-{2-[(2R,5S)-2-(6-Methoxypyridin-3-yl)-5-methylpiperidin-1-yl]-2-oxoacetamido}pyridine-3-carboxamide] | A (an IC50 ratio greater than or equal to 10 fold) | < 5.00
< 6.30 | 6.30 to 7.30 | > 7.30 | < 6.00 | > 7.00 | Cc1cc([C@@H]2CC[C@@H](C)CN2C(=O)C(=O)Nc2cncc(C(N)=O)c2)ccc1F (racemic) [Compound 131, rac-5-{2-[(2R,5S)-2-(4-Fluoro-3-methylphenyl)-5-methylpiperidin-1-yl]-2-oxoacetamido}pyridine-3-carboxamide] | A (an IC50 ratio greater than or equal to 10 fold) | 5.00 to 6.00
6.30 to 7.30 | < 6.30 | 6.30 to 7.30 | < 6.00 | < 6.00 | NC(=O)c1cncc(NC(=O)C(=O)N2CCC3CCCCCC3C2)c1 (racemic) [Compound 133, 5-(2-{Decahydro-1H-cyclohepta[c]pyridin-2-yl}-2-oxoacetamido)pyridine-3-carboxamide] | B (an IC50 ratio greater than or equal to 3 fold but lower than 10 fold) | < 5.00
6.30 to 7.30 | 6.30 to 7.30 | > 7.30 | < 6.00 | 6.00 to 7.00 | Cc1cc(NC(=O)C(=O)N2CCCCC2C(C)C)cnc1N (racemic) [Compound 135, N-(6-amino-5-methyl-3-pyridyl)-2-(2-isopropyl-1-piperidyl)-2-oxo-acetamide] | A (an IC50 ratio greater than or equal to 10 fold) | < 5.00
6.30 to 7.30 | 6.30 to 7.30 | > 7.30 | < 6.00 | 6.00 to 7.00 | CC1(C)CCCC2CN(C(=O)C(=O)Nc3cncc(C(N)=O)c3)CCC21 (racemic) [Compound 141, 5-[2-(5,5-Dimethyl-decahydroisoquinolin-2-yl)-2-oxoacetamido]pyridine-3-carboxamide] | A (an IC50 ratio greater than or equal to 10 fold) | < 5.00
< 6.30 | < 6.30 | 6.30 to 7.30 | < 6.00 | < 6.00 | CC1CCC(C2CCCC2)CN1C(=O)C(=O)Nc1cncc(C(N)=O)c1 (racemic) [Compound 143, 5-[2-(5-Cyclopentyl-2-methylpiperidin-1-yl)-2-oxoacetamido]pyridine-3-carboxamide] | C (an IC50 ratio of less than 3 fold) | < 5.00
6.30 to 7.30 | 6.30 to 7.30 | > 7.30 | < 6.00 | 6.00 to 7.00 | Cc1cc(NC(=O)C(=O)N2C[C@H](C)CC[C@H]2C2CCC(C(C)(C)C)CC2)cnc1N (mixture of isomers) [Compound 145, rac-N-(6-amino-5-methyl-3-pyridyl)-2-[(2S,5R)-2-(4-tert-butylcyclohexyl)-5-methyl-1-piperidyl]-2-oxo-acetamide] | C (an IC50 ratio of less than 3 fold) | < 5.00
6.30 to 7.30 | 6.30 to 7.30 | > 7.30 | < 6.00 | > 7.00 | Cc1cc(NC(=O)C(=O)N2C[C@H](C)CC[C@H]2c2cccnc2)cnc1N (racemic) [Compound 146, N-(6-amino-5-methyl-3-pyridyl)-2-[(2S,5R)-5-methyl-2-(3-pyridyl)-1-piperidyl]-2-oxo-acetamide] | – | 5.00 to 6.00

From patent US11999727B2 (Tango Therapeutics, Inc., priority 2020, dated 2024)
